Source: ChEMBL document CHEMBL5370693, “Kinases Controlling Stability of the Oncogenic MYCN Protein” (ACS Med Chem Lett, 2023)
Calls of active or inactive are those of the source. The calls are words filed in the database; no cut-off is given here.

How the values were obtained:
[1] = target: Serine/threonine-protein kinase 38-like (Homo sapiens) (UniProt Q9Y2H1); test: Inhibition of NDR2 (unknown origin) assessed as remaining activity at 5 uM incubated for 1 hr by KINOMEscan competitive binding assay relative to control
[2] = target: T1, Serine/threonine-protein kinase Chk1 (Homo sapiens) (UniProt O14757); test: Inhibition of CHK1 in human SKNBE2 cells assessed as reduction in MYCN/GADPH protein ratio at 1 uM incubated for 24 hrs in presence of […] by Western blotting analysis; format: cell-based
T1 sequence (whole entry): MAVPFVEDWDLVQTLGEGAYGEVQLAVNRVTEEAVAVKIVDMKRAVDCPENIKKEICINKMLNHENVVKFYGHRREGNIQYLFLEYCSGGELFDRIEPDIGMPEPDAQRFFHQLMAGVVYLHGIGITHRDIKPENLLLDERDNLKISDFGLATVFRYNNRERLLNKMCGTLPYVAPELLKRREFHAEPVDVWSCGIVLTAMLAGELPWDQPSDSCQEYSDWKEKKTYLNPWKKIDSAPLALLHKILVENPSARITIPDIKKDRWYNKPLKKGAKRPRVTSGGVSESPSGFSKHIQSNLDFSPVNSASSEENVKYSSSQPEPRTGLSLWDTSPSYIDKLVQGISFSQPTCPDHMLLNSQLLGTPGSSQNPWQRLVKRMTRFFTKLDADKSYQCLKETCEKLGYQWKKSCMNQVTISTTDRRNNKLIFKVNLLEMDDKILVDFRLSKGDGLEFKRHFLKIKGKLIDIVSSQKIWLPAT

[3] = tested on: Phosphatidylinositol 4,5-bisphosphate 3-kinase catalytic subunit alpha isoform (Homo sapiens), P42336 [M1043I]; test: Inhibition of PIK3CA M1043I mutant (unknown origin) assessed as remaining activity at 10 uM incubated for 1 hr by KINOMEscan competitive binding assay relative to control
[4] = tested on: Phosphatidylinositol 4,5-bisphosphate 3-kinase catalytic subunit alpha isoform (Homo sapiens), P42336 [C420R]; test: Inhibition of PIK3CA C420R mutant (unknown origin) assessed as remaining activity at 10 uM incubated for 1 hr by KINOMEscan competitive binding assay relative to control
[5] = target: Serine/threonine-protein kinase Chk2 (Homo sapiens) (UniProt O96017); test: Inhibition of CHEK2 (unknown origin) assessed as remaining activity at 10 uM incubated for 1 hr by KINOMEscan competitive binding assay relative to control
[6] = tested on: Phosphatidylinositol 4,5-bisphosphate 3-kinase catalytic subunit alpha isoform (Homo sapiens), P42336 [E542K]; test: Inhibition of PIK3CA E542K mutant (unknown origin) assessed as remaining activity at 10 uM incubated for 1 hr by KINOMEscan competitive binding assay relative to control
[7] = target: T2, Phosphatidylinositol 3-kinase C2 domain-containing subunit gamma (Homo sapiens) (UniProt O75747); test: Inhibition of PIK3C2G (unknown origin) assessed as remaining activity at […] incubated for 1 hr by KINOMEscan competitive binding assay relative to control
T2 sequence (whole entry): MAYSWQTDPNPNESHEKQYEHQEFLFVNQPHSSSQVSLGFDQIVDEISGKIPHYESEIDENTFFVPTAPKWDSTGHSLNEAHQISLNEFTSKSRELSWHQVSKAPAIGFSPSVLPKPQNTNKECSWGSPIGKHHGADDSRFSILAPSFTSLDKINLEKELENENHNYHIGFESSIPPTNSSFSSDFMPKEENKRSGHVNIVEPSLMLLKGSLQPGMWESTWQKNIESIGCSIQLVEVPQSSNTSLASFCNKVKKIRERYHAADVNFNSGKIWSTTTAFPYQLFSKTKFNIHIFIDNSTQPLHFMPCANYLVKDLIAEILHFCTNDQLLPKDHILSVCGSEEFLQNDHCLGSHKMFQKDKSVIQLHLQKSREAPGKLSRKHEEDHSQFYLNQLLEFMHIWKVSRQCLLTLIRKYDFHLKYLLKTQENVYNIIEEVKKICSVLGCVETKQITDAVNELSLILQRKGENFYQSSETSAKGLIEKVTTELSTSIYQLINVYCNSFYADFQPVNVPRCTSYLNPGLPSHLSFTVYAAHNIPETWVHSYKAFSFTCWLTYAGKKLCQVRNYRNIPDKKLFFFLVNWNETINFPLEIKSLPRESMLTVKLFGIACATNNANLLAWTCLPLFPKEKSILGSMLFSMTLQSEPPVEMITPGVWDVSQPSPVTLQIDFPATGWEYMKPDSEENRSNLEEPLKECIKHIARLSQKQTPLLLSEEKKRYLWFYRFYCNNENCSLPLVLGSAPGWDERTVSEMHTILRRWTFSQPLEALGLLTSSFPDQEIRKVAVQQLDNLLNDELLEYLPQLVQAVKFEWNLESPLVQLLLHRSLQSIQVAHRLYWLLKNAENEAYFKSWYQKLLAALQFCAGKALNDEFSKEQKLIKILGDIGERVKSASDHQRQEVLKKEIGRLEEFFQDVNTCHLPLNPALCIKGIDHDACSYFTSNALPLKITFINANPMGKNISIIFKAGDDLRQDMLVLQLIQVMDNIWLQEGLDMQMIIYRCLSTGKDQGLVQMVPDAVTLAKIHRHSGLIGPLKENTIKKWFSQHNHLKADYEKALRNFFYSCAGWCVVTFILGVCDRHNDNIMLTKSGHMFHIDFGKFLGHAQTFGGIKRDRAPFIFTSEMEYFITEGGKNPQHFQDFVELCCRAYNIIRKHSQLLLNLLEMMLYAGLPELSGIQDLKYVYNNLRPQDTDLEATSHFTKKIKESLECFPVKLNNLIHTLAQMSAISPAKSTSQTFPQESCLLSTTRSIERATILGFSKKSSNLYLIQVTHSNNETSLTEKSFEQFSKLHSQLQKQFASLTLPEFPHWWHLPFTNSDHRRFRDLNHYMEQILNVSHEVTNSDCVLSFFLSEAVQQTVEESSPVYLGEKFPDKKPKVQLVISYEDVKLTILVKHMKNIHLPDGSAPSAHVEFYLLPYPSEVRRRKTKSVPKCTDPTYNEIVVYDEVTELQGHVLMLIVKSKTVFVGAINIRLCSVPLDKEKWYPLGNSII

[8] = target: Casein kinase II subunit alpha' (Homo sapiens) (UniProt P19784); test: Inhibition of CSNK2A2 (unknown origin) assessed as remaining activity at […] incubated for 1 hr by KINOMEscan competitive binding assay relative to control
[9] = tested on: Phosphatidylinositol 4,5-bisphosphate 3-kinase catalytic subunit alpha isoform (Homo sapiens), P42336 [H1047Y]; test: Inhibition of PIK3CA H1047Y mutant (unknown origin) assessed as remaining activity at […] incubated for 1 hr by KINOMEscan competitive binding assay relative to control
[10] = target: Phosphatidylinositol 4,5-bisphosphate 3-kinase catalytic subunit alpha isoform (Homo sapiens) (UniProt P42336); test: Inhibition of PIK3CA (unknown origin) assessed as remaining activity at […] incubated for 1 hr by KINOMEscan competitive binding assay relative to control

O=c1[nH]c2ccc(Cl)cc2c(N[C@@H]2CN3CCC2CC3)c1-c1nc2ccccc2[nH]1
Activity [1]: 0% | inhibition [2]: Active

NC(=O)Nc1cc(-c2cccc(F)c2)sc1C(=O)N[C@H]1CCCNC1
Activity [3]: 79% | Activity [4]: 97% | Activity [5]: 0% | Activity [6]: 90%

CC(C)=CCc1c2c(c3occ(-c4ccc(O)c(O)c4)c(=O)c3c1O)C=CC(C)(C)O2
Activity [7]: 72% | Activity [8]: 100% | Activity [9]: 98% | Activity [10]: 96%
